Reference: ChEMBL document CHEMBL1151844, “Flavonoid glucosides from the hairy roots of Catharanthus roseus” (J Nat Prod, 2009)
Activity calls are given as the source filed them. No cut-off for these calls is given here.

How the values were obtained:
[1] = system: THP-1; experiment: Antiinflammatory activity against human THP1 cells assessed as inhibition of LPS-induced MMP9 expression pretreated 2 hrs before LPS challenge measured after 24 hrs by SDS-PAGE; format: functional, cell-based
[2] = system: A549; experiment: Cytotoxicity against human A549 cells; format: functional, cell-based
[3] = system: Ca-Ski; experiment: Cytotoxicity against human CaSki cells by; format: functional, cell-based
[4] = system: DLD2; experiment: Cytotoxicity against human DLD2 cells; format: functional, cell-based
[5] = system: MCF7; experiment: Cytotoxicity against human MCF7 cells; format: functional, cell-based
[6] = system: THP-1; experiment: Cytotoxicity against LPS-stimulated human THP1 cells assessed as cell viability at 26.9 uM pretreated 2 hrs before LPS-challenge measured after 24 hrs by MTS assay; format: cell-based; details: thp-1, 24 h
[7] = system: THP-1; experiment: Antiinflammatory activity against human THP1 cells assessed as inhibition of LPS-induced TNFalpha release at 6.7 to 26.9 uM pretreated 2 hrs before LPS challenge measured after 24 hrs by ELISA; format: functional, cell-based
[8] = system: THP-1; experiment: Cytotoxicity against LPS-stimulated human THP1 cells assessed as cell viability at 29.4 uM pretreated 2 hrs before LPS-challenge measured after 24 hrs by MTS assay; format: cell-based; details: thp-1, 24 h
[9] = system: THP-1; experiment: Antiinflammatory activity against human THP1 cells assessed as inhibition of LPS-induced TNFalpha release at 7.3 to 29.4 uM pretreated 2 hrs before LPS challenge measured after 24 hrs by ELISA; format: functional, cell-based
[10] = system: THP-1; experiment: Antiinflammatory activity against human THP1 cells assessed as inhibition of LPS-induced TNFalpha release at 6.5 to 25.9 uM pretreated 2 hrs before LPS challenge measured after 24 hrs by ELISA; format: functional, cell-based
[11] = system: THP-1; experiment: Cytotoxicity against LPS-stimulated human THP1 cells assessed as cell viability at 25.9 uM pretreated 2 hrs before LPS-challenge measured after 24 hrs by MTS assay; format: cell-based; details: thp-1, 24 h
[12] = system: THP-1; experiment: Cytotoxicity against LPS-stimulated human THP1 cells assessed as cell viability at 29.0 uM pretreated 2 hrs before LPS-challenge measured after 24 hrs by MTS assay; format: cell-based; details: thp-1, 24 h
[13] = system: THP-1; experiment: Antiinflammatory activity against human THP1 cells assessed as inhibition of LPS-induced TNFalpha release at 7.3 to 29.0 uM pretreated 2 hrs before LPS challenge measured after 24 hrs by ELISA; format: functional, cell-based

Row | SMILES | Activity [1] | Activity [2] | Activity [3] | Activity [4] | Activity [5] | Activity [6] | Activity [7] | Activity [8] | Activity [9] | Activity [10] | Activity [11] | Activity [12] | Activity [13]
1 | CCC(C)C(CCC(C)CCCC(C)CCCC(C)C)O[C@H]1[C@H](O)[C@@H](O)[C@H](Oc2c(-c3ccc(OC)cc3)oc3cc(O)cc(O)c3c2=O)O[C@@H]1CO (stereo partly drawn) | Dose-dependent effect | Not toxic | Not toxic | Not toxic | Not toxic | Non-toxic | Active | – | – | – | – | – | –
2 | C=C(CCC=C(C)C)CC/C=C(\C)CC(=O)OC[C@H]1O[C@@H](Oc2ccc3c(c2)O[C@@H](c2ccc(OC)c(OC)c2)CC3=O)[C@H](O)[C@@H](O)[C@@H]1O | Dose-dependent effect | Not toxic | Not toxic | Not toxic | Not toxic | – | – | Non-toxic | Active | – | – | – | –
3 | C/C=C(\C)C(CCC(C)CCCC(C)CCCC(C)C)O[C@H]1[C@H](O)[C@@H](O)[C@H](Oc2cc(O)c3c(=O)c(O)c(-c4ccc(OC)c(OC)c4)oc3c2)O[C@@H]1CO (stereo partly drawn) | Dose-dependent effect | Not toxic | Not toxic | Not toxic | Not toxic | – | – | – | – | Active | Non-toxic | – | –
4 | COc1ccc([C@H]2CC(=O)c3ccc(O[C@@H]4O[C@H](COC(=O)CC(C)CCCC(CO)CCCC(C)C)[C@@H](O)[C@H](O)[C@H]4O)cc3O2)cc1OC (stereo partly drawn) | Dose-dependent effect | Not toxic | Not toxic | Not toxic | Not toxic | – | – | – | – | – | – | Non-toxic | Active
